Source: the supplement of paper PMC10331698
± gives the standard deviation of the averaged measurements.

What was measured:
Assay in all cases: level (log10 ratio to DMSO vehicle control); higher = higher biomarker level / cell amount than vehicle control
[1] = compound: FC(F)(I)C(F)(F)C(F)(F)C(F)(F)C(F)(F)C(F)(F)I [1,6-Diiodoperfluorohexane]; details: 6700 nM; in DMSO
Protocol: (§1)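 BioMAP Diversity Plus panel of 12 human primary cell co-culture systems (3C, 4H, LPS, SAg, BT, BF4T, BE3C, CASM3C, HDF3CGF, KF3CT, MyoF, Mphg). Compounds were added 1 h before stimulation and left for 24 h (MyoF 48 h; BT 72 h for soluble read-outs or 6 d for IgG). Biomarkers were read by ELISA, cytotoxicity by SRB, PBMC viability and proliferation by Alamar Blue. Each well value was divided by the mean of 8 DMSO control wells on the same plate and log10 transformed; duplicate blinded samples were tested at 4 concentrations.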

[2] = compound: O=C(Cl)C(F)(F)C(F)(F)C(F)(F)C(=O)Cl [Hexafluoroglutaryl chloride]; details: in DMSO
Protocol: as §1

[3] = compound: Cc1ccc(S(=O)(=O)OCC(F)(F)C(F)(F)C(F)(F)C(F)(F)C(F)(F)C(F)F)cc1 [1H,1H,7H-Perfluoroheptyl 4-methylbenzenesulfonate]; details: in DMSO
Protocol: as §1

[4] = compound: OCCCC(F)(F)C(F)(F)C(F)(F)C(F)(F)C(F)(F)C(F)(F)C(F)(F)C(F)(F)F [3-(Perfluorooctyl)propanol]; details: 6700 nM; in DMSO
Protocol: as §1

[5] = compound: C=CC(=O)OCCC(F)(F)C(F)(F)C(F)(F)C(F)(F)C(F)(F)C(F)(F)C(F)(F)C(F)(F)F [8:2 Fluorotelomer acrylate]; details: in DMSO
Protocol: as §1

Perfluorooctanoic acid = compound: O=C(O)C(F)(F)C(F)(F)C(F)(F)C(F)(F)C(F)(F)C(F)(F)C(F)(F)F [Perfluorooctanoic acid]; details: in DMSO
Protocol: as §1

Methotrexate = compound: CN(Cc1cnc2nc(N)nc(N)c2n1)c1ccc(C(=O)N[C@@H](CCC(=O)O)C(=O)O)cc1 [Methotrexate]; details: in DMSO
Protocol: as §1

Perfluoropinacol = compound: OC(C(F)(F)F)(C(F)(F)F)C(O)(C(F)(F)F)C(F)(F)F [Perfluoropinacol]; details: in DMSO
Protocol: as §1

| Test System | level (log10) [1] | level (log10) ([2]; 6700 nM) | level (log10) ([2]; 20000 nM) | level (log10) ([2]; 60000 nM) | level (log10) ([3]; 6700 nM) | level (log10) ([3]; 20000 nM) | level (log10) ([3]; 60000 nM) | level (log10) [4] | level (log10) ([5]; 6700 nM) | level (log10) ([5]; 20000 nM) | level (log10) ([5]; 60000 nM) | level (log10) (Perfluorooctanoic acid; 6700 nM) | level (log10) (Perfluorooctanoic acid; 20000 nM) | level (log10) (Perfluorooctanoic acid; 60000 nM) | level (log10) (Methotrexate; 1500 nM) | level (log10) (Methotrexate; 4400 nM) | level (log10) (Methotrexate; 13000 nM) | level (log10) (Methotrexate; 40000 nM) | level (log10) (Perfluoropinacol; 6700 nM) | level (log10) (Perfluoropinacol; 20000 nM) |
| --- | --- | --- | --- | --- | --- | --- | --- | --- | --- | --- | --- | --- | --- | --- | --- | --- | --- | --- | --- | --- |
| KF3CT:IL-1alpha | -0.073 | -0.0085 ± 0.0078 | 0.0095 ± 0.013 | -0.012 ± 0.018 | -0.053 ± 0.024 | -0.01 ± 0.024 | 0.013 ± 0.038 | -0.0985 ± 0.012 | 0.0005 ± 0.011 | -0.0245 ± 0.00071 | -0.0355 ± 0.04 | 0.018 ± 0.0057 | 0.012 ± 0.0014 | -0.0395 ± 0.0035 | -0.0145 ± 0.013 | -0.0225 ± 0.032 | -0.002 ± 0.052 | -0.0145 ± 0.039 | 0.0765 ± 0.028 | 0.155 ± 0.032 |
| HDF3CGF:Collagen I | 0.053 | -0.025 ± 0.023 | 0.002 | 0.0065 ± 0.028 | 0.025 ± 0.051 | 0.0485 ± 0.066 | 0.027 ± 0.052 | 0.161 ± 0.077 | -0.025 ± 0.0028 | -0.008 ± 0.0071 | 0.0325 ± 0.018 | -0.025 ± 0.0028 | 0.0005 ± 0.016 | 0.0395 ± 0.054 | -0.0495 ± 0.079 | -0.077 ± 0.083 | -0.068 ± 0.095 | -0.0415 ± 0.035 | -0.0205 ± 0.0092 | -0.0685 ± 0.015 |
| BE3C:SRB | -0.005 | 0.0045 ± 0.0092 | 0.0065 ± 0.013 | 0.0115 ± 0.0035 | -0.006 ± 0.0028 | -0.008 ± 0.0042 | -0.0145 ± 0.0035 | -0.002 ± 0.0028 | -0.0045 ± 0.0021 | -0.0045 ± 0.0064 | 0.006 ± 0.018 | -0.0065 ± 0.00071 | -0.0025 ± 0.0021 | -0.014 ± 0.0099 | -0.0035 ± 0.0064 | -0.009 ± 0.0014 | -0.0025 ± 0.00071 | 0.001 ± 0.014 | -0.0115 ± 0.0035 | -0.0285 ± 0.00071 |
| CASM3C:IL-6 | -0.063 | 0.006 ± 0.014 | -0.0145 ± 0.021 | 0.031 ± 0.017 | -0.035 ± 0.013 | -0.0435 ± 0.005 | -0.0155 ± 0.033 | -0.0335 ± 0.0021 | -0.023 ± 0.0099 | -0.017 ± 0.027 | 0.0105 ± 0.05 | -0.0135 ± 0.019 | -0.022 ± 0.027 | -0.008 ± 0.031 | -0.035 ± 0.041 | -0.087 ± 0.076 | -0.009 ± 0.023 | -0.039 ± 0.041 | -0.0045 ± 0.025 | 0.033 ± 0.0085 |
| lMphg:CD106/VCAM-1 | -0.025 | -0.0075 ± 0.0078 | -0.0015 ± 0.037 | -0.0145 ± 0.042 | -0.0105 ± 0.029 | 0.0045 ± 0.0021 | 0 ± 0.0071 | 0.001 ± 0.0099 | 0 ± 0.013 | -0.015 ± 0.0014 | -0.0045 ± 0.03 | 0.0065 ± 0.0078 | 0.0065 ± 0.011 | 0.0025 ± 0.0092 | -0.001 ± 0.025 | -0.016 ± 0.021 | -0.002 ± 0.0057 | -0.007 ± 0.021 | 0.0045 ± 0.0064 | -0.077 ± 0.023 |
| CASM3C:CD141/Thrombomodulin | 0.008 | -0.0055 ± 0.037 | -0.0135 ± 0.063 | -0.0125 ± 0.044 | -0.002 ± 0.0014 | 0.032 ± 0.0085 | 0.067 ± 0.041 | 0.0455 ± 0.019 | 0.0125 ± 0.011 | -0.005 ± 0.0071 | 0.009 ± 0.013 | 0.0125 ± 0.0092 | 0.007 ± 0.016 | -0.0115 ± 0.0064 | 0.0595 ± 0.005 | -0.008 ± 0.093 | 0.0155 ± 0.098 | 0.044 ± 0.021 | -0.0085 ± 0.021 | 0.0575 ± 0.0035 |
| CASM3C:SRB | 0.002 | -0.0045 ± 0.0021 | 0.007 ± 0.0042 | 0.0115 ± 0.016 | 0.002 ± 0.0014 | -0.0055 ± 0.0078 | -0.0125 ± 0.0035 | -0.008 ± 0.0042 | -0.002 | 0.005 ± 0.0099 | 0.0085 ± 0.0064 | -0.005 ± 0.0042 | 0.0005 ± 0.00071 | 0.0095 ± 0.00071 | 0.001 | -0.0095 ± 0.0064 | -0.0055 ± 0.0035 | -0.0105 ± 0.011 | -0.02 ± 0.0099 | -0.061 ± 0.0057 |
| lMphg:CD62E/E-Selectin | 0.033 | -0.0295 ± 0.016 | 0.0025 ± 0.018 | -0.0365 ± 0.022 | -0.0225 ± 0.0064 | 0.022 ± 0.0014 | 0.0635 ± 0.019 | -0.0425 ± 0.066 | 0.019 ± 0.038 | 0.0215 ± 0.0064 | 0.041 ± 0.034 | -0.007 ± 0.025 | 0.013 | 0.052 ± 0.017 | -0.009 ± 0.0099 | -0.0265 ± 0.028 | -0.0135 ± 0.019 | -0.011 ± 0.033 | 0.0515 ± 0.013 | -0.139 ± 0.018 |
| KF3CT:PAI-I | -0.117 | -0.012 ± 0.028 | -0.0005 ± 0.0078 | -0.0055 ± 0.015 | -0.016 ± 0.02 | 0.0005 ± 0.0078 | -0.032 ± 0.0042 | -0.104 ± 0.077 | -0.009 ± 0.014 | 0.0155 ± 0.012 | 0.001 ± 0.0085 | 0.0005 ± 0.021 | -0.015 ± 0.02 | -0.079 ± 0.0028 | 0.006 ± 0.014 | -0.036 ± 0.031 | -0.0145 ± 0.025 | -0.007 ± 0.1 | 0.001 ± 0.0042 | -0.0435 ± 0.012 |
| HDF3CGF:CXCL10/IP-10 | -0.315 | -0.013 ± 0.021 | -0.01 ± 0.016 | -0.0235 ± 0.0035 | -0.008 ± 0.025 | 0.0085 ± 0.013 | 0.006 ± 0.055 | -0.275 ± 0.057 | 0.01 ± 0.021 | 0.003 ± 0.037 | 0.01 ± 0.028 | -0.0035 ± 0.011 | -0.017 ± 0.016 | -0.03 ± 0.034 | 0.013 ± 0.0028 | 0.002 ± 0.0057 | 0.0035 ± 0.00071 | -0.001 ± 0.016 | -0.0535 ± 0.023 | -0.215 ± 0.012 |
| HDF3CGF:PAI-I | -0.662 | -0.05 ± 0.073 | -0.0215 ± 0.083 | -0.0155 ± 0.043 | -0.004 ± 0.0042 | -0.009 ± 0.011 | 0.0065 ± 0.036 | -0.391 ± 0.07 | -0.0135 ± 0.013 | -0.0665 ± 0.0021 | -0.071 ± 0.0057 | 0.02 ± 0.0071 | 0.0425 ± 0.019 | 0.088 ± 0.065 | -0.0705 ± 0.14 | -0.0725 ± 0.079 | -0.0445 ± 0.079 | -0.081 ± 0.16 | -0.0325 ± 0.012 | -0.117 ± 0.0021 |
| KF3CT:CD54/ICAM-1 | -0.038 | -0.013 ± 0.0014 | -0.002 ± 0.0057 | -0.002 ± 0.0028 | 0.003 ± 0.0057 | 0.001 ± 0.0042 | 0 ± 0.0042 | -0.062 ± 0.024 | 0.003 ± 0.0042 | -0.0155 ± 0.029 | -0.0455 ± 0.019 | -0.015 ± 0.011 | -0.011 ± 0.0028 | -0.0095 ± 0.018 | -0.0085 ± 0.012 | -0.011 ± 0.0014 | 0.006 ± 0.0071 | 0.007 ± 0.0042 | 0.012 ± 0.0099 | 0.0185 ± 0.015 |
| HDF3CGF:CXCL9/MIG | -0.463 | 0.0125 ± 0.018 | -0.0055 ± 0.0064 | 0.0075 ± 0.012 | -0.002 ± 0.0099 | 0.061 ± 0.025 | 0.048 ± 0.037 | -0.0895 ± 0.054 | -0.0115 ± 0.015 | -0.007 ± 0.011 | -0.007 ± 0.0042 | 0.001 ± 0.0057 | -0.0245 ± 0.036 | -0.0095 ± 0.028 | 0.002 ± 0.045 | -0.003 ± 0.023 | -0.0205 ± 0.036 | -0.0165 ± 0.057 | -0.018 ± 0.018 | -0.0675 ± 0.012 |
